Calls of active or inactive are those of the source.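 The calls were made as follows: active = compounds giving half or more protection of infected cells from virus-caused growth loss, again on retest; inactive = the rest.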
Tested on: CEM cells HIV-1 protection, formazan growth assay
Test: NCI AIDS Antiviral Assay
Conditions: for IC50: measured here: growth of uninfected CEM cells
Procedure: The ability of compounds to protect human CEM cells from HIV-1 infection is measured as a screen for new compounds capable of inhibiting the HIV virus. Five concentrations of drug were tested on uninfected and infected cells and cell growth was measured using a soluble formazan assay. […] Compounds that provided at least 50% protection were retested. Compounds that provided at least 50% protection on retest were listed as moderately active. Compounds that reproducibly provided 100% protection were listed as confirmed active. […] Note that the inability to provide protection could be due to toxicity.

SMILES | EC50 [µM] | IC50 [µM] | outcome
CC(C)(C)n1c(=O)n(C(=O)C(Cl)(Cl)Cl)n(C(=O)C(Cl)(Cl)Cl)c1=O | > 200 | > 200 | 
C/C(CC(=O)Nc1ccc([N+](=O)[O-])cc1)=N\NC(N)=O | > 468 | > 468 | 
N#C/C(=C\c1cccc(Br)c1)c1nc2ccccc2c(=O)[nH]1 |  |  | inactive
Nc1ncc2ncn(C3CCC(CO)O3)c2n1 (centres undefined) | > 200 | > 200 | 
Cc1cc2c(cc1Cl)SSc1cc(Cl)c(C)cc1S(=O)(=O)Nc1nc(N)nn1C(O)n1nc(N)nc1NS2(=O)=O | 89.1 | > 100 | 
N/N=C(\Cc1ccccc1)NN=C(N)N | > 457 | 389 | 
O=S(c1ccc(Cl)cc1)c1ccccc1C1=NCCN1 (centres undefined) | > 200 | > 200 | 
CC(C)(C)c1ccc(SSc2ccc(C(C)(C)C)cc2)cc1 | > 200 | 12.3 | 
Cc1cc(=O)n2nc(CCl)sc2n1 | > 200 | 9.33 | 
Cn1c(=O)[nH]c2c(c1=O)CCCS2 | > 251 | > 251 | 
O=[N+]([O-])C(/C=C(\Cl)[N+](=O)[O-])=C(N1CCOCC1)N1CCOCC1 | > 200 | 110 | 
Cc1nc(C)c(N2CCN(S(=O)(=O)N(Cc3ccccc3)Cc3ccccc3)CC2)c(=O)[nH]1 | > 200 | > 200 | 
CCSc1nc(=[N+]2CCCC2)ss1 |  |  | inactive
COc1ccc(CC2C(=O)NC(=O)NC2=O)cc1OC | > 200 | > 200 | 
O=C(CCCl)Nc1c(Cl)cccc1Cl |  |  | inactive
COc1cc2c(cc1OC)C(C1(O)CCCCC1)NCC2 (centres undefined) | > 851 | 457 | 
CCOC(=O)c1cc2c3c(c(O)c(OC)c2s1)N(C(=O)c1cc2c4c(c(OC)c(OC)c2s1)N(C(=O)OC(C)(C)C(Cl)(Cl)Cl)CC4)CC3 |  |  | inactive
O=S(=O)(/C=C/C=C/S(=O)(=O)c1ccccc1)c1ccccc1 | > 2 | 0.251 | 
CC(=O)NCCCCCCNC(C)=O | > 1260 | > 1260 | 
COc1c(C(=O)CC2c3c(cc4oc(C)cc(=O)c4c3OC)OC(=N)C2c2nc3ccccc3[nH]2)c(O)c(OC)c2occc12 (centres undefined) | 25.1 | 49 | 
CN(C)c1ccc(/C=C(\NC(=O)c2ccccc2)C(=O)Nc2ccccc2C(=O)N/N=C/c2ccc(N(C)C)cc2)cc1 | > 25.1 | > 25.1 | 
COc1ccc(CCNC(=S)N/C=C\c2nc3ccccc3[nH]c2=O)cc1OC |  |  | inactive

SMILES | EC50 [µM] | IC50 [µM] | outcome
O=C(CN1CCN(c2ccccc2)CC1)N1CCc2c([nH]c3ccccc23)C1c1cccnc1 (centres undefined) | > 1.58 | > 1.58 | 
c1ccc2c(c1)cc1n2CC2CN=NC12 (centres undefined) | > 182 | > 182 | 
COc1cc2ccc3c4c(OC)cc(OC)c(OC)c4c(=O)n(C)c3c2cc1OC | > 45.7 | 3.63 | 
O=C(Nc1ccc(Cl)c(Cl)c1)OCC#CCOC(=O)Nc1ccc(Cl)c(Cl)c1 | > 200 | 8.91 | 
NS(=O)(=O)c1ccc(NC(=O)Nc2cc(C(F)(F)F)ccc2Cl)cc1 | > 200 | 10.2 | 
C=C[C@@H](C)[C@@H](O)c1c(O)c2c(c3c(CCC)cc(=O)oc13)OC(C)(C)C=C2 | > 200 | 10.7 | 
Cc1cc2c(cc1C)[n+](=O)c(C(=O)C/C(=N/OCCCc1ccccc1)C(=O)Nc1cc(Cl)ccc1Cl)c(C)n2[O-] | > 6.31 | > 6.31 | 
CN1CCC23c4c5cc(-c6cc7c8c(c6O)OC6C(O)C=CC9C(C7)N(C)CCC896)c(O)c4OC2C(O)C=CC3C1C5 (centres undefined) |  |  | inactive
CC(=O)N/N=C(\N)c1nc2c(n3nc(C)nc13)CCCC2 | > 200 | 91.2 | 
O=C(/C=C/c1ccccc1)c1c2ccccc2cc2ccccc12 | > 8.91 | > 8.91 | 
C=CCOC(C)(C)C1=CCC(C)CC1 (centres undefined) | > 100 | > 100 | 
NNC(=O)c1n[nH]n(N)c1=S | > 200 | > 200 | 
CC(=O)c1cccc(NC2C(N)C(NC(=O)N(C)C)(C(C)O)C(C)(O)C2(O)COC(=O)c2c(C)cccc2O)c1 (centres undefined) | > 64.6 | 0.0427 | 
COc1ccc(/C=C\c2cc(OC)c(OC)c(OC)c2)cc1OP(=O)(O)O | > 35.5 | 0.0282 | 
CCN(CC)c1ccc2nc3c4ccccc4c(=O)cc-3n(-c3ccccc3)c2c1 | > 200 | 4.57 | 
CC(C(N)=O)N(C)C(=O)c1cnc2ccccc2c1 (centres undefined) |  |  | inactive
Cc1cc(Cl)ccc1NC(=O)C(=O)Cc1nc2ccccc2o1 | > 11.5 | > 11.5 | 
COc1c2c(c(O)c3c4c(c(C)cc13)C1OC3(C(OC)OC5CC(C)(O)C(OC6CC(C)(O)C(O)C(C)O6)C(C)O5)OC1C(OC)(O4)C31CO1)C(=O)C(O)CC2OC1CC(C)(O)C(OC(C)=O)C(C)O1 (centres undefined) | > 26.3 | 0.00832 | 
O=C(Nc1ccc(Cl)cc1C(F)(F)F)C(=O)Nn1c(=S)[nH]c2ccccc2c1=O | > 151 | > 151 | 
CCC[CH2][Sn]1([CH2]CCC)[O]C(=O)c2ccc(N)cc2[O]1 |  |  | inactive
O=C(NC(=O)c1cc(-c2ccccc2)n[nH]1)c1ccccc1 | > 200 | 123 | 
O=S(=O)(c1ccccc1)C1(C2(S(=O)(=O)c3ccccc3)CCN=N2)CCN=N1 (centres undefined) |  |  | inactive

SMILES | EC50 [µM] | IC50 [µM] | outcome
Cc1ccc(Nc2nc(C)c(C(/C=C/c3ccc4c(c3)OCO4)=N/Nc3ccc([N+](=O)[O-])cc3[N+](=O)[O-])s2)c([N+](=O)[O-])c1 | > 60.3 | 55 | 
CCOC1(NC(=O)N(C)C)C2CCCC21 (centres undefined) | > 200 | > 200 | 
Cc1cc2c(C(C)C)c(O)c(O)c(C=Nc3ccc(-c4ccccc4)cc3)c2c(O)c1-c1c(C)cc2c(C(C)C)c(O)c(O)c(C=Nc3ccc(-c4ccccc4)cc3)c2c1O | 1.62 | > 200 | 
CC(C)(C)OC(=O)NC(Cc1ccccc1)NC(=O)NC(=O)OCc1ccccc1 (centres undefined) | > 200 | 112 | 
Clc1ncnc2c1ncn2CCCCCCCCCCCCn1cnc2c(Cl)ncnc21 |  |  | inactive
CN(C)CC(C)(C)C(/C=C/c1ccccc1)=N\Nc1ccccc1 |  |  | inactive
C=CCOc1ccc(C2(c3ccc(OCC=C)cc3)C(=O)Nc3ccccc32)cc1 | > 200 | 44.7 | 
CN(C)CCC(=O)N1C/C(=C\c2ccc(Cl)c(Cl)c2)C(=O)/C(=C/c2ccc(Cl)c(Cl)c2)C1 | > 33.9 | 0.0437 | 
CC1=C(O)C(=O)C(C2=C(O)C(=O)C(C)=C(O)C2=O)=C(O)C1=O | > 263 | 145 | 
CN(C)CCN1CCC(Cc2ccccc2)CC1 | > 200 | 72.4 | 
CCCCNC(=S)Nc1nc(C(=O)NNC(=O)c2ccccc2)cs1 | > 200 | 11.2 | 
O=C(/C=C/c1ccc(Cl)cc1)Oc1ccc(/C=C2\CCCCC2=O)cc1 | > 200 | 42.7 | 
CN(C)c1c(-c2ccc(Cl)cc2)cc(-c2ccccc2)[nH]c1=O | > 20.9 | > 20.9 | 
COc1ccc(C(c2ccccc2)(c2ccc(OC)cc2)N2C(=O)NC3C(CCCCC(=O)NCCCCCCOP(OCCC#N)N(C(C)C)C(C)C)SCC32)cc1 (centres undefined) | > 4.47 | > 4.47 | 
CC(C)(C)CC(C)(C)SSc1n[nH]c(=S)s1 | > 200 | 17.4 | 
Cc1ccc(C(=O)CCC2C(=O)CC(C)(C)CC2=O)cc1 | > 91.2 | 64.6 | 
CN1C(=S)C2=C(c3ccccc3)N(C)C(=S)C2=C1c1ccccc1 | 102 | > 200 | 
O=C1C2=C(/C=C/c3ccccc3)OCCC2=NN1c1ccccc1 | > 42.7 | 7.59 | 
c1ccc2sc(SCN3CCCCC3)nc2c1 | > 200 | 81.3 | 
CC(=O)NNc1nc(C)c(C(/C=C/c2ccc(Cl)cc2)=N\N=C(N)N)s1 | > 18.2 | > 18.2 | 
COc1ccc(CC2C(=O)NC(=O)NC2=O)cc1OCc1ccccc1 |  |  | inactive
CNC(=O)c1[nH]cnc1/N=N/N(C)N | > 200 | 182 | 

SMILES | EC50 [µM] | IC50 [µM] | outcome
COc1nc(N=P(c2ccccc2)(c2ccccc2)c2ccccc2)cc(=O)[nH]1 |  |  | inactive
COc1ccc(O)c(/C(C)=N/NC(=S)N(C)C)c1 | > 200 | 10.7 | 
CN(C)c1nc(N(C)C)nc(N(C)C23CC4CC(CC(C4)C2)C3)n1 | > 200 | 64.6 | 
O=c1[nH]c2cc(Cl)c(Br)cc2o1 | 112 | 204 | 
CN(C)c1cccc2c(S(=O)(=O)NCC(=O)O)cccc12 |  |  | inactive
COC(=O)[C@@H]1C(CO)[C@H](n2cc(C)c(=O)[nH]c2=O)C1(C)C (some centres undefined) | > 437 | > 437 | 
O=C(O)C1Cc2[nH]c3ccccc3c2C2CCCC12 (centres undefined) | > 708 | 363 | 
N#C/C(=C\c1ccc(O)c(O)c1)C(=O)NCCCCNC(=O)/C(C#N)=C/c1ccc(O)c(O)c1 | > 200 | 24 | 
N#CSCc1nc2ccc(Cl)cc2c(-c2ccccc2)[n+]1[O-] | > 55 | 8.91 | 
OC(c1ccccc1)(c1ccccc1)C1CC1c1ccncc1 (centres undefined) | > 200 | 117 | 
Cn1[nH]cc2ccc3nc4ccccc4c(=O)c3c21 |  |  | inactive
C[C@]12CCC(=O)C=C1CC[C@@H]1C2CC[C@]2(C)Nc3[nH]ncc3CC12 (some centres undefined) |  |  | inactive
CN1C(C)(C)CC(=O)C(Br)C1(C)C (centres undefined) | > 200 | 117 | 
CCCCCCCCCCCCCCCCOCC(COC1OC(COC(C)=O)C(OC(C)=O)C(OC(C)=O)C1OC(C)=O)OCCCCCCCCCCCCCCCC (centres undefined) | > 29.5 | > 29.5 | 
NNS(=O)(=O)c1ccc(OCC(=O)O)cc1 | > 200 | 182 | 
COC(=O)c1cc(CN(C)C)c(O)c(CN(C)C)c1 | > 200 | > 200 | 
O=C(O)Cn1c(=O)ccc2ccccc21 | > 200 | > 200 | 
N=c1nnc2ccc(Cl)cc2n1O | > 200 | 33.1 | 
Cc1nc(CC#N)n[nH]1 | > 200 | > 200 | 

Source: PubChem BioAssay AID179 (DTP/NCI, 2004)
